This note sets out measurements from patent publication US20230312752A1 (Brown University, priority 2021, published 2023).

What all share (assay type): cell-based, SARS-CoV-2
Experiment [1] relates to pseudoviruses with omicron S protein mutations.
Experiment [2] relates to pseudovirus with S protein D614G, E484K, UK, SA, BZ variants.
For experiment [3], the system named is pseudovirus with Delta S protein mutations.
For experiment [4], the system named is pseudovirus with alpha, beta or gamma S protein mutations.

Consider “rhCHI3L1: recombinant human CHI3L1 (chitinase 3 like 1) protein, from R&D Inc. or generated at Brown University”, for which the uptake of pseudoviruses entry in experiment [1] is “potent stimulator”. In experiment [2], the “cellular integration of Spike proteins” value is on record as “stimulated”. In experiment [3], the uptake of pseudovirus entry is reported as “potent stimulator”.

Take `C[C@H]1O[C@H](O[C@H]2[C@H](O)[C@@H](O)[C@@H](O)[C@H](O)[C@@H]2O)[C@@H](N)C[C@@H]1NC(=N)C(=O)O` [Kasugamycin, 2-amino-2-[(2R,3S,5S,6R)-5-amino-2-methyl-6-[(2R,3S,5S,6S)-2,3,4,5,6-pentahydroxycyclohexyl]oxyoxan-3-yl]iminoacetic acid]: the “epithelial cell uptake of pseudoviruses” value in experiment [1] is listed as “inhibited”. Moreover, in experiment [4], the “rCHI3L1 stimulatory effects on pseudovirus uptake” value was “markedly decreased”; the “uptake of pseudovirus in cells treated with and without rCHI3L1” value was “markedly diminished”. In experiment [3], the CHI3L1-stimulated pseudovirus uptake result is given as “abrogated” and the “pseudovirus uptake when exogenous CHI3L1 was not administered” value was “diminished”.

B1: FRG: murine monoclonal anti-CHI3L1 antibody raised against amino acid 223-234 of human CHI3L1; heavy chain SEQ ID NO: 13, light chain SEQ ID NO: 14 (antibody, V domains shown)
VH: QIQLVQSGPELKKPGETVKISCKASGYTFTNYGMNWVKQAPGKGLKWMGWINTYTGEPTYADDFKGRFAFSLETSASTAYLQINNLRNEDMSTYFCARLGYGKFYVMDYWGQGTSVTVSS
VL: DVVMTQTPLSLPVSLGDQASISCRSSQSLVHSNGNTYLHWYLQKPGQSPKLLIYKVSNRFSGVPDRFSGSGSGTDFTLKISRVEAEDLGVYFCSQSTHVTWTFGGGTKLEIK
On to B1, for which the “epithelial cell uptake of pseudoviruses” value in experiment [1] is on record as “inhibited”. Also, in experiment [4], the “uptake of pseudovirus in cells treated with and without rCHI3L1” value is “markedly diminished”; the “uptake of pseudoviruses in cells treated with and without rCHI3L1” value was “markedly diminished”. Moreover, in experiment [3], the CHI3L1-stimulated pseudovirus uptake entry is given as “abrogated” and the “pseudovirus uptake when exogenous CHI3L1 was not administered” value is given as “diminished”.
